Columns and labels:
Hepatotoxicity [1] = test system: Hepatotoxicity;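 as to HepSE bilirubinemia: bilirubinemia hepatic side effect score drawn from the DILIps training data, a prediction system for drug-induced liver injury; call rule not given here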;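 as to HepSE cholecystitis: Cholecystitis-related hepatic side effect score drawn from the DILIps (drug-induced liver injury prediction) training data set; call rule not given here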;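 as to HepSE cholelithiasis: hepatic side effect score for cholelithiasis, drawn from the DILIps training data for predicting drug-induced liver injury; call rule not given here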;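 as to HepSE cirrhosis: cirrhosis hepatic side effect score taken from the DILIps (drug-induced liver injury prediction) training set; call rule not given here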;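 as to HepSE elevated liver function tests: hepatic side effect score for raised liver function tests, as recorded in the DILIps training set used for predicting drug-induced liver injury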; as to HepSE hepatic failure: call rule not given here;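 as to HepSE hepatomegaly: hepatic side effect score for hepatomegaly, taken from the training set of the DILIps drug-induced liver injury prediction system; call rule not given here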
Hepatotoxicity [2] = test system: Hepatotoxicity; remark: listed apart in the source;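 as to HepSE bilirubinemia: bilirubinemia hepatic side effect score drawn from the DILIps training data, a prediction system for drug-induced liver injury; call rule not given here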;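 as to HepSE cholecystitis: Cholecystitis-related hepatic side effect score drawn from the DILIps (drug-induced liver injury prediction) training data set; call rule not given here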;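 as to HepSE cholelithiasis: hepatic side effect score for cholelithiasis, drawn from the DILIps training data for predicting drug-induced liver injury; call rule not given here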;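 as to HepSE cirrhosis: cirrhosis hepatic side effect score taken from the DILIps (drug-induced liver injury prediction) training set; call rule not given here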;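 as to HepSE elevated liver function tests: hepatic side effect score for raised liver function tests, as recorded in the DILIps training set used for predicting drug-induced liver injury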; as to HepSE hepatic failure: call rule not given here
Hepatotoxicity [3] = test system: Hepatotoxicity; remark: listed apart in the source;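 as to HepSE bilirubinemia: bilirubinemia hepatic side effect score drawn from the DILIps training data, a prediction system for drug-induced liver injury; call rule not given here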;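 as to HepSE cholecystitis: Cholecystitis-related hepatic side effect score drawn from the DILIps (drug-induced liver injury prediction) training data set; call rule not given here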;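 as to HepSE cholelithiasis: hepatic side effect score for cholelithiasis, drawn from the DILIps training data for predicting drug-induced liver injury; call rule not given here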;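 as to HepSE cirrhosis: cirrhosis hepatic side effect score taken from the DILIps (drug-induced liver injury prediction) training set; call rule not given here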;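 as to HepSE elevated liver function tests: hepatic side effect score for raised liver function tests, as recorded in the DILIps training set used for predicting drug-induced liver injury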; as to HepSE hepatic failure: call rule not given here
Hepatotoxicity [4] = test system: Hepatotoxicity; remark: listed apart in the source;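 as to HepSE bilirubinemia: bilirubinemia hepatic side effect score drawn from the DILIps training data, a prediction system for drug-induced liver injury; call rule not given here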;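 as to HepSE cholecystitis: Cholecystitis-related hepatic side effect score drawn from the DILIps (drug-induced liver injury prediction) training data set; call rule not given here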;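 as to HepSE cholelithiasis: hepatic side effect score for cholelithiasis, drawn from the DILIps training data for predicting drug-induced liver injury; call rule not given here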;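 as to HepSE cirrhosis: cirrhosis hepatic side effect score taken from the DILIps (drug-induced liver injury prediction) training set; call rule not given here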;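 as to HepSE elevated liver function tests: hepatic side effect score for raised liver function tests, as recorded in the DILIps training set used for predicting drug-induced liver injury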; as to HepSE hepatic failure: call rule not given here
Hepatotoxicity [5] = test system: Hepatotoxicity; remark: listed apart in the source; as to HepSE hepatic failure: call rule not given here
Hepatotoxicity [6] = test system: Hepatotoxicity; remark: listed apart in the source; as to HepSE hepatic failure: call rule not given here
Hepatotoxicity [7] = test system: Hepatotoxicity; remark: listed apart in the source
Hepatotoxicity [8] = test system: Hepatotoxicity; remark: listed apart in the source
Hepatotoxicity [9] = test system: Hepatotoxicity; remark: listed apart in the source
Hepatotoxicity [10] = test system: Hepatotoxicity; remark: listed apart in the source
Hepatotoxicity [11] = test system: Hepatotoxicity; remark: listed apart in the source
Hepatotoxicity [12] = test system: Hepatotoxicity; remark: listed apart in the source
Hepatotoxicity [13] = test system: Hepatotoxicity; remark: listed apart in the source
Hepatotoxicity [14] = test system: Hepatotoxicity; remark: listed apart in the source

SMILES | HepSE_bilirubinemia (Hepatotoxicity [1]) | HepSE_cholecystitis (Hepatotoxicity [2]) | HepSE_cholelithiasis (Hepatotoxicity [3]) | HepSE_cirrhosis (Hepatotoxicity [4]) | HepSE_elevated liver function tests (Hepatotoxicity [5]) | HepSE_hepatic failure (Hepatotoxicity [6]) | HepSE_hepatic necrosis (Hepatotoxicity [7]) | HepSE_hepatitis (Hepatotoxicity [8]) | HepSE_hepatomegaly (Hepatotoxicity [9]) | HepSE_jaundice (Hepatotoxicity [10]) | HepSE_liver disease (Hepatotoxicity [11]) | HepSE_liver fatty (Hepatotoxicity [12]) | HepSE_liver function tests abnormal (Hepatotoxicity [13]) | HepSE_Combined Scores (Hepatotoxicity [14])
COc1ccccc1OCCNCC(O)COc1cccc2[nH]c3ccccc3c12 (centres undefined) [CARVEDILOL] | 1 | 0 | 0 | 0 | 0 | 0 | 0 | 0 | 0 | 0 | 0 | 0 | 0 | 1
CC[C@H](C)C[C@H](C)CCCCCCCCC(=O)N[C@H]1C[C@@H](O)[C@@H](NCCN)NC(=O)[C@@H]2[C@@H](O)CCN2C(=O)[C@H]([C@H](O)CCN)NC(=O)[C@H]([C@H](O)[C@@H](O)c2ccc(O)cc2)NC(=O)[C@@H]2C[C@@H](O)CN2C(=O)[C@H]([C@@H](C)O)NC1=O [CASPOFUNGIN] | 1 | 0 | 0 | 0 | 0 | 1 | 1 | 0 | 1 | 1 | 0 | 0 | 0 | 5
N[C@@H](C(=O)N[C@@H]1C(=O)N2C(C(=O)O)=C(Cl)CS[C@H]12)c1ccccc1 [CEFACLOR ANHYDROUS] | 0 | 0 | 0 | 0 | 0 | 0 | 0 | 1 | 0 | 1 | 0 | 0 | 0 | 2
CC1=C(C(=O)O)N2C(=O)[C@@H](NC(=O)[C@H](N)c3ccc(O)cc3)[C@H]2SC1 [CEFADROXIL] | 0 | 0 | 0 | 0 | 0 | 1 | 0 | 0 | 0 | 0 | 0 | 0 | 0 | 1
Cc1nnc(SCC2=C(C(=O)O)N3C(=O)[C@@H](NC(=O)Cn4cnnn4)[C@H]3SC2)s1 [CEFAZOLIN] | 0 | 0 | 0 | 0 | 0 | 0 | 0 | 1 | 0 | 0 | 0 | 0 | 0 | 1
CO/N=C(\C(=O)N[C@@H]1C(=O)N2C(C(=O)OCOC(=O)C(C)(C)C)=C(/C=C\c3scnc3C)CS[C@H]12)c1csc(N)n1 [CEFDITOREN PIVOXIL] | 0 | 0 | 0 | 0 | 0 | 0 | 0 | 0 | 0 | 0 | 0 | 0 | 1 | 1
C=CC1=C(C(=O)O)N2C(=O)[C@@H](NC(=O)/C(=N\OCC(=O)O)c3csc(N)n3)[C@H]2SC1 [CEFIXIME] | 1 | 0 | 0 | 0 | 0 | 0 | 0 | 1 | 0 | 1 | 0 | 0 | 0 | 3
CCN1CCN(C(=O)N[C@@H](C(=O)N[C@@H]2C(=O)N3C(C(=O)O)=C(CSc4nnnn4C)CS[C@H]23)c2ccc(O)cc2)C(=O)C1=O [CEFOPERAZONE] | 0 | 0 | 0 | 0 | 0 | 0 | 0 | 1 | 0 | 0 | 1 | 0 | 0 | 2
CO/N=C(\C(=O)N[C@@H]1C(=O)N2C(C(=O)O)=C(COC(C)=O)CS[C@H]12)c1csc(N)n1 [CEFOTAXIME] | 0 | 0 | 0 | 0 | 0 | 0 | 0 | 1 | 0 | 1 | 0 | 0 | 0 | 2
CO[C@@]1(NC(=O)C2SC(=C(C(N)=O)C(=O)O)S2)C(=O)N2C(C(=O)O)=C(CSc3nnnn3C)CS[C@@H]21 (some centres undefined) [CEFOTETAN] | 0 | 0 | 0 | 0 | 0 | 0 | 0 | 0 | 0 | 0 | 0 | 0 | 0 | 0
CO[C@@]1(NC(=O)Cc2cccs2)C(=O)N2C(C(=O)O)=C(COC(N)=O)CS[C@@H]21 [CEFOXITIN] | 0 | 0 | 0 | 0 | 0 | 0 | 0 | 0 | 0 | 1 | 0 | 0 | 0 | 1
COCC1=C(C(=O)O)N2C(=O)[C@@H](NC(=O)/C(=N\OC)c3csc(N)n3)[C@H]2SC1 [CEFPODOXIME] | 0 | 0 | 0 | 0 | 0 | 0 | 0 | 0 | 0 | 0 | 0 | 0 | 0 | 0
CC=CC1=C(C(=O)O)N2C(=O)[C@@H](NC(=O)[C@H](N)c3ccc(O)cc3)[C@H]2SC1 [CEFPROZIL] | 0 | 0 | 0 | 0 | 0 | 0 | 0 | 0 | 0 | 1 | 0 | 0 | 0 | 1
CC(C)(O/N=C(\C(=O)N[C@@H]1C(=O)N2C(C(=O)[O-])=C(C[n+]3ccccc3)CS[C@H]12)c1csc(N)n1)C(=O)O [CEFTAZIDIME] | 1 | 0 | 0 | 0 | 0 | 0 | 0 | 0 | 0 | 1 | 0 | 0 | 0 | 2
Nc1nc(/C(=C/CC(=O)O)C(=O)N[C@@H]2C(=O)N3C(C(=O)O)=CCS[C@H]23)cs1 [CEFTIBUTEN] | 0 | 0 | 0 | 0 | 0 | 0 | 0 | 0 | 0 | 1 | 0 | 0 | 0 | 1
CO/N=C(\C(=O)N[C@@H]1C(=O)N2C(C(=O)O)=CCS[C@H]12)c1csc(N)n1 [CEFTIZOXIME] | 0 | 0 | 0 | 0 | 0 | 0 | 0 | 0 | 0 | 0 | 0 | 0 | 0 | 0

— ChEMBL document CHEMBL1909294, “Translating clinical findings into knowledge in drug safety evaluation--drug induced liver injury prediction system (DILIps)” (PLoS Comput Biol, 2011)
